{"source": "paper PMC2990587", "about": "“Central nervous system penetration and enhancement of temozolomide activity in childhood medulloblastoma models by poly(ADP-ribose) polymerase inhibitor AG-014699” (British Journal of Cancer, 2010)", "key": {"D425Med xenografts": {"tested_on": "D425Med xenografts", "assay": "Tumour growth inhibition in vivo, D425Med xenografts", "set-up": "species or system mouse", "from_the_text": "All of the in vivo experiments were reviewed and approved by the relevant institutional animal welfare committees, and performed according to national law. Female athymic nude mice (CD1 nu/nu; Charles River, Margate, UK) used for anti-tumour studies were maintained and handled in isolators under specific pathogen-free conditions. […], […] and […] (1 × 10^7 exponentially growing cells per mouse, harvested and implanted in growth media) xenografts were established by sub-cutaneous implantation into CD-1 nude mice. […] Treatment was initiated when sufficient number of mice had established tumours to allow randomisation into treatment groups: day 17 for […], day 26 for […] and day 32 for […]. […] For drug combinations, AG-014699 was administered immediately after administering temozolomide. […] Tumour growth delay (TGD) is defined as the time to RTV4 in drug-treated mice compared with the time to RTV4 in control (vehicle alone) mice. Median tumour volume is shown, rather than the mean, as this is generally accepted as the most statistically reliable representation of the average growth rate of tumours in a small group of mice, if a normal distribution of tumour volumes cannot be assumed. Tumour growth delay was calculated as: median time to RTV4 in treated group-median time to RTV4 in control group."}, "[1]": {"assay": "Toxicity (body weight loss) in tumour-bearing mice", "assay_type": "in vivo, mouse", "description": "CD-1 nude mice bearing palpable, established subcutaneous D425Med, D283Med and D384Med xenografts were treated with normal saline (control animals), temozolomide (68 mg kg^−1 per os (p.o.)) or AG-014699 (1 mg kg^−1 i.p.) alone or in combination, daily for 5 days (five mice per group). For drug combinations, AG-014699 was administered immediately after administering temozolomide. Tumour volumes, determined from two-dimensional calliper measurements and the equation a^2 × b/2 (where a is the […] of the tumour), were monitored for the experimental period (up to 100 days), and are presented for each group of mice as median relative tumour volume (RTV) values. Relative tumour volume 1 is the tumour volume on the initial day of treatment (day 0), and RTV4 is the tumour volume four times that on the initial day of treatment. Tumour growth delay (TGD) is defined as the time to RTV4 in drug-treated mice compared with the time to RTV4 in control (vehicle alone) mice. Median tumour volume is shown, rather than the mean, as this is generally accepted as the most statistically reliable representation of the average growth rate of tumours in a small group of mice, if a normal distribution of tumour volumes cannot be assumed. Tumour growth delay was calculated as: median time to RTV4 in treated group−median time to RTV4 in control group. Percentage enhancement was calculated as 100 × (TGD TMZ+AG-014699/TGD TMZ alone)−100 ([Calabrese et al, 2004])."}}, "note": "“Also recorded” adds a separate entry of the source."}
{"molecule": "CNCc1ccc(-c2[nH]c3cc(F)cc4c3c2CCNC4=O)cc1", "note": "[AG-014699]", "values": [{"measurement": "Median nadir body weight (% starting weight)", "setting": "D425Med xenografts; D425Med-bearing mice, daily x5, TMZ 68 mg kg−1 p.o., AG-014699 1 mg kg−1 i.p.", "result": 98, "unit": "% starting weight"}, {"measurement": "Median time to RTV4", "setting": "D425Med xenografts; D425Med, daily x5, TMZ 68 mg kg−1 p.o., AG-014699 1 mg kg−1 i.p.", "result": 15.5, "unit": "days"}, {"measurement": "Complete regressions", "setting": "D425Med xenografts; D425Med, mice with regression/group, sustained for 100 days", "result": "0/5"}, {"measurement": "Toxicity of AG-014699 alone", "setting": "[1]; 1 mg kg−1 i.p. daily five times", "result": "not toxic; also recorded: did not cause any marked toxicity"}, {"measurement": "Body weight loss", "setting": "[1]; daily x5, TMZ 68 mg kg−1 p.o., AG-014699 1 mg kg−1 i.p.", "result": "1±1", "unit": "%"}]}
